Substitutions are numbered along the chain they refer to. Names may count otherwise.
Legend:
[1] = system: mice; details: cited from earlier work
[2] = biological target: T1, FIBCD1 (the FReD of FIBCD1) (Homo sapiens, UniProt Q8N539); assay: Pull-down assay of FIBCD1 (FReD) with insoluble polysaccharides; format: binding; details: 20 μg FIBCD1 FReD, 2 mg insoluble substance
T1 construct: 20 μg of the FIBCD1 (the FReD of FIBCD1)
T1 sequence (Q8N539 235-458 limits assumed): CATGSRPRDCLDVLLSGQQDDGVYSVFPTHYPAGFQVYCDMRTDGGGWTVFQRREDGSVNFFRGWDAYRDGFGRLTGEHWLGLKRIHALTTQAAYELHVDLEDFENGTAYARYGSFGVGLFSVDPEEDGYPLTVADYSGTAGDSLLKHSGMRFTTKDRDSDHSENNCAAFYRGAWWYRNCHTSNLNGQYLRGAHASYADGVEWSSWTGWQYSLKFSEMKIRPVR
Method: (B) Microtiterplates were coated with LTA, mannan, peptidoglycan or NAc-BSA and increasing concentrations of FIBCD1 was added. (C) Pull-down assays where 20 μg of the FIBCD1 (the FReD of FIBCD1) or as a positive control 20 μg of wheat germ agglutinin (WGA) was added to 2 mg insoluble chitin, cellulose, zymozane or beta-glucan. […] BSA was used as control. Pellet fractions were analyzed by SDS-PAGE and Coomassie blue staining.

[3] = system: allergic mouse model; details: oral administration; cited from earlier work
[4] = system: spleen cells isolated from the ragweed-immunized mice; details: ragweed/chitin stimulation, 3 days; cited from earlier work
[5] = biological target: T2, acetylated BSA (Bos taurus, UniProt P02769); assay: Binding of mutated forms of the FReD of FIBCD1 to acetylated BSA (ELISA); details: site directed mutagenesis of FIBCD1 FReD
T2 construct: purchased Sigma
Method: Microtiter plates were coated with acetylated BSA or BSA and blocked with TBS/Tw before being incubated with FIBCD1 samples diluted in TBS/Tw (5 mM CaCl2). The FIBCD1 samples were added from 1 μg/ml in a twofold dilution series. The signal from binding of protein to BSA was subtracted from the signal from binding to acetylated BSA. The resulting normalized signals were then expressed as a percentage of the signal from FIBCD1FReD at 1 μg/ml, which was set at 100%. The experiment was repeated three times.
Generation of HEK293 and CHO cells expressing recombinant forms of FIBCD1 In order to generate cells expressing recombinant forms of FIBCD1, the Flp-In™ system (Invitrogen) was utilized. In this system the cDNA is integrated into a specific genomic site. Flp-In™ T-REx™ HEK293 cells or CHO Flp-In™ T-REx™ (Invitrogen) was used as host cells. HEK293 cells were cultured in Dulbecco's modified Eagle medium (DMEM; Invitrogen) and CHO cells in Hams F12 medium (Invitrogen) both containing penicillin (100 units/ml), streptomycin (100 μg/ml), 2 mM L-glutamine and 10% fetal bovine serum (Invitrogen). At approximately 50% confluency, cells were co-transfected (ratio 1:9) with the pSecTag/FRT/V5-His TOPO® TA or pcDNA/FRT/V5-His TOPO® TA containing the FIBCD1 construct and the pOG44 vector encoding Flp recombinase, using the jetPEI™ transfection kit (Polyplus-transfection SAS, Illkirch cedex, France). The recombinase mediates insertion of the expression vectors into the genomic integration site. Integration of the vectors confers hygromycin resistance. Thus, 48 hours after transfection the HEK293 and CHO cells were selected for stable integration of the FIBCD1 constructs with 150 μg/ml and 800 μg/ml hygromycin B (Invitrogen), respectively. Hygromycin resistant clones were obtained after two weeks of culture. At confluence cells were transferred to DMEM or Hams F12 medium without serum. Supernatants were harvested after 72 hours of expression and analyzed by SDS-PAGE and Western blotting. […]

T2 sequence (P02769 25-607): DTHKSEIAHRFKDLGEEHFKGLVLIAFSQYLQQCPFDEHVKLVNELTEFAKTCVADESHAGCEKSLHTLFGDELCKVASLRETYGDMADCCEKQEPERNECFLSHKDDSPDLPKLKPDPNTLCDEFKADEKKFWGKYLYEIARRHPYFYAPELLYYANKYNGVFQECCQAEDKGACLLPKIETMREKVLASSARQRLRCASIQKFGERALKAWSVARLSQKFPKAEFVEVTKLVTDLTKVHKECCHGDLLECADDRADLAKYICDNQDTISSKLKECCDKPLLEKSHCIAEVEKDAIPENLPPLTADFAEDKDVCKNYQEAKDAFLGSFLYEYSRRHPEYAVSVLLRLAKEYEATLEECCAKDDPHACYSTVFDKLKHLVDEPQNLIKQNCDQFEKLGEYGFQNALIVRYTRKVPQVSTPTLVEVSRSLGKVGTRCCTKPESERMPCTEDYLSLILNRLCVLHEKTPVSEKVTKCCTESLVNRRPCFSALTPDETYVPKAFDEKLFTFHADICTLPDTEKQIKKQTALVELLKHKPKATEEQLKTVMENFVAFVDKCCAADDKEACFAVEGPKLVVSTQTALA

For “AMCase: acidic mammalian chitinase, an endo-β-1,3... see b8: endo-β-1,4-N-acetylglucosaminidase”, the chitin-induced cell infiltration ([1]; pre-treatment with AMCase) is given as “inhibited”.

In the case of chitin, the “accumulation of IL-4 and IL-13 expressing cells including Th2 cells, eosinophils and basophils” value ([1]; instilled in the lung (or given intraperitoneally)) is listed as “induced the accumulation”, the “binding of FIBCD1 in pull-down” value [2] is listed as “detected” and the lung eosinophilia [3] is listed as “down-regulates”. For the same molecule, the “serum IgE levels” value [3] was “down-regulates”, the IFN-γ production [4] was “increase” and the IL-4 levels [4] was “significant decreases”. For the same molecule, the IL-5 levels [4] was “significant decreases” and the IL-10 levels [4] was “significant decreases”.

B1: H415G: single mutation form of the FReD of FIBCD1 (protein)
chain: ATGSRPRDCLDVLLSGQQDDGVYSVFPTHYPAGFQVYCDMRTDGGGWTVFQRREDGSVNFFRGWDAYRDGFGRLTGEHWLGLKRIHALTTQAAYELHVDLEDFENGTAYARYGSFGVGLFSVDPEEDGYPLTVADYSGTAGDSLLKHSGMRFTTKDRDSDHSENNCAAFYRGAWWYRNCGTSNLNGQYLRGAHASYADGVEWSSWTGWQYSLKFSEMKIRPVREDR
With B1 the “binding of mutated FIBCD1 to NAc-BSA” value [5] was “completely arrogate”.

B2: W443S: single mutation form of the FReD of FIBCD1 (protein)
chain: B1 chain with G180H, W208S
In the case of B2, the “binding of mutated FIBCD1 to NAc-BSA” value [5] is reported as “partially arrogated”.

B3: A432V: single mutation form of the FReD of FIBCD1 (protein)
chain: B1 chain with G180H, A197V
For B3, the “binding of mutated FIBCD1 to NAc-BSA” value [5] was “completely arrogate”.

— patent publication US20120020958A1, “FIBCD1 FOR THE PREVENTION AND TREATMENT OF DISEASES” (Dansk Universitet, priority 2008, published 2012)
